Laboratory results: US20250109127A1, “METHODS OF USE OF PHENOXYPROPYLAMINE COMPOUNDS TO TREAT DEPRESSION” (Minerva Neurosciences, Inc., priority 2013, published 2025)
Values joined by “and” are separate entries in the source; they are usually repeats but may differ in a detail not shown here. Equal entries are not always repeated.

Tested on: 5-HT release in the rat prefrontal cortex
Experiment: Microdialysis: 5-HT release in prefrontal cortex after I.P. administration
Assay type: in vivo
Conditions: for 5-HT in dialysate, MEAN / 5-HT in dialysate, individual animals: Citalopram 10 mg/kg I.P.
Description: The aim of the study was to evaluate, using microdialysis, the effects of an intraperitoneal (I.P.) administration in rats of three different doses of SON-117 on dopamine and its metabolites, serotonin and its metabolite (5-HIAA), and norepinephrine levels in prefrontal cortex.
Thirty-two adult male Wistar rats were used for the whole study (4 groups of eight animals planned for the study, Table 1).
Surgery was performed on rats weighing about 300 g at the beginning of the experiments. Rats were anaesthetized with Ketamine (50 mg/kg) & Xylazine (15 mg/kg) by intramuscular administration. The animals were placed in a stereotaxic apparatus in the flat-skull position at a constant setting of −3.3 mm between ear bars and the incisor bar. The animals were treated with a local anesthesic (xylocaine 1%, Astra Zeneca) and an analgesic (Temgesic, from Schering Plough, 0.05 mg/kg, s.c.). A rostrocaudal midline incision was made with a lancet to expose the dorsal skull surface. The “stereotaxic zero” was defined by the Bregma in accordance with Paxinos and Watson's atlas (1986). A hole was drilled in the skull with a drill and the meninges were pierced with a sterile needle to implant a CMA12 guide cannula which later received the dialysis probe.
Coordinates used for implanting guide cannula in prefrontal cortex from Bregma were anteroposterior 3.7 mm, mediolateral 0.8 mm, and dorsoventral −2 mm (top of the probe was at −5 mm). The guide cannula was fixed to the skull with two stainless steel screws (1.88 mm outside diameter) anchored. An application of dental cement was added. A plastic collar allowed each animal to be tethered to a Swivel assembly of the CMA 120 awake animal system. Following surgery, rats were kept in individual cages and allowed to recover for a minimum of 3-5 days before the experimentation. The rats were handled and put in plastic bowl for 10 min at least every day to habituate the animals to their new environment for the dialysis. An I.P. administration with saline was also performed every day.
Dialysis probes (CMA12/3 mm, membrane, 20 kD cut-off, Carnegie Medicine, Stockholm, Sweden), were carefully washed before inserting into the guide cannula. The wash was performed with the artificial cerebrospinal fluid (aCSF) medium (NaCl 147 mM, KCl 2.7 mM, CaCl2 1.2 mM, MgCl2 0.85 mM) at room temperature. The dialysis system was then equilibrated at 20° C. at a perfusion rate of 1 μl/min with a Carnegie pump (CMA100). All catheters (FEP tubing, internal volume of 1.2 μl/10 cm, and tubing adaptors) used for microdialysis were treated in the same conditions.
The probes duly prepared were inserted into the guide cannula and the CMA120 Swivel assembly secured to the animal using a plastic collar. Flow through the dialysis probe with aCSF was maintained at a rate of 1 μl/min during the whole experimentation. The first four fractions (corresponding to 2 hours) were discarded to avoid the effects of parenchymal disturbance and to ensure that an approximate steady-state level was reached. Fractions were then collected over a period of 8.5 h during which time the animals remained quiet. The dialysates were automatically collected with an autosampler (microfraction collector CMA 140, Carnegie Medicin) and stored at −80° C. until analysis. […] Perfusion was then maintained for 7 hours with aCSF. The dialysates (30 μl) were collected into 300 μl vials, transferred into dry ice and then kept frozen (−80° C.) until analysis. Frozen samples were shipped to a partner for analysis. At the end of the microdialysis study, a PBS with colored ink was perfused through the probe in order to visualize the dialyzed area.
Catecholamine assay: Concentrations of dopamine, DOPAC, HVA, 5-HIAA, 5-HT, and norepinephrin were determined for each sample by HPLC coupled with electrochemical detection. […]

CN(C)CCCC1(c2ccc(F)cc2)OCc2cc(C#N)ccc21 (centres unmarked) [Citalopram, citalopram, reference compound]
5-HT in dialysate, MEAN (T0-T30 min): 85.23 % of respective basal
5-HT in dialysate, MEAN (T30-T1 h): 218.92 % of respective basal
5-HT in dialysate, individual animals (T30-T1 h): 203.59 % of respective basal and 157.98 % of respective basal and 133.67 % of respective basal and 139.45 % of respective basal and 219.64 % of respective basal and 344.10 % of respective basal and 285.92 % of respective basal and 267.00 % of respective basal
5-HT in dialysate, MEAN (T1 h 30-T2 h): 170.67 % of respective basal
5-HT in dialysate, individual animals (T1 h 30-T2 h): 103.23 % of respective basal and 101.96 % of respective basal and 153.81 % of respective basal and 83.91 % of respective basal and 207.6 % of respective basal and 351.79 % of respective basal and 164.94 % of respective basal and 198.14 % of respective basal
5-HT in dialysate, MEAN (T1 h-T1 h 30): 171.48 % of respective basal
5-HT in dialysate, individual animals (T1 h-T1 h 30): 162.56 % of respective basal and 151.29 % of respective basal and 167.46 % of respective basal and 128.56 % of respective basal and 232.85 % of respective basal and 235.03 % of respective basal and 158.66 % of respective basal and 135.42 % of respective basal
5-HT in dialysate, MEAN (T2 h 30-T3 h): 116.57 % of respective basal
5-HT in dialysate, individual animals (T2 h 30-T3 h): 109.55 % of respective basal and 38.11 % of respective basal and 79.68 % of respective basal and 57.89 % of respective basal and 152.73 % of respective basal and 299.86 % of respective basal and 89.94 % of respective basal and 104.76 % of respective basal
5-HT in dialysate, MEAN (T2 h-T2 h 30): 138.70 % of respective basal
5-HT in dialysate, individual animals (T2 h-T2 h 30): 97.34 % of respective basal and 43.80 % of respective basal and 100.91 % of respective basal and 83.82 % of respective basal and 153.02 % of respective basal and 315.50 % of respective basal and 215.03 % of respective basal and 100.89 % of respective basal
5-HT in dialysate, MEAN (T3 h 30-T4 h): 126.49 % of respective basal
5-HT in dialysate, individual animals (T3 h 30-T4 h): 93.89 % of respective basal and 20.30 % of respective basal and 84.02 % of respective basal and 59.96 % of respective basal and 97.06 % of respective basal and 476.98 % of respective basal and 67.07 % of respective basal and 112.62 % of respective basal
5-HT in dialysate, MEAN (T3 h-T3 h 30): 136.30 % of respective basal
5-HT in dialysate, individual animals (T3 h-T3 h 30): 88.23 % of respective basal and 47.91 % of respective basal and 85.22 % of respective basal and 48.54 % of respective basal and 108.35 % of respective basal and 516.29 % of respective basal and 70.00 % of respective basal and 125.89 % of respective basal
5-HT in dialysate, MEAN (T4 h 30-T5 h): 90.86 % of respective basal
5-HT in dialysate, individual animals (T4 h 30-T5 h): 89.09 % of respective basal and 13.90 % of respective basal and 77.20 % of respective basal and 44.62 % of respective basal and 120.70 % of respective basal and 212.73 % of respective basal and 55.57 % of respective basal and 113.09 % of respective basal
5-HT in dialysate, MEAN (T4 h-T4 h 30): 97.87 % of respective basal
5-HT in dialysate, individual animals (T4 h-T4 h 30): 128.06 % of respective basal and 25.07 % of respective basal and 73.75 % of respective basal and 50.85 % of respective basal and 85.54 % of respective basal and 261.90 % of respective basal and 76.87 % of respective basal and 80.93 % of respective basal
5-HT in dialysate, MEAN (T5 h 30-T6 h): 75.87 % of respective basal
5-HT in dialysate, individual animals (T5 h 30-T6 h): 78.66 % of respective basal and 7.95 % of respective basal and 69.20 % of respective basal and 42.04 % of respective basal and 72.98 % of respective basal and 142.95 % of respective basal and 74.38 % of respective basal and 118.79 % of respective basal
5-HT in dialysate, MEAN (T5 h-T5 h 30): 92.05 % of respective basal
5-HT in dialysate, individual animals (T5 h-T5 h 30): 77.74 % of respective basal and 11.81 % of respective basal and 73.01 % of respective basal and 50.89 % of respective basal and 87.24 % of respective basal and 227.76 % of respective basal and 54.20 % of respective basal and 153.73 % of respective basal
5-HT in dialysate, MEAN (T6 h 30-T7 h): 76.63 % of respective basal
5-HT in dialysate, individual animals (T6 h 30-T7 h): 87.93 % of respective basal and 11.23 % of respective basal and 60.60 % of respective basal and 41.05 % of respective basal
5-HT in dialysate, MEAN (T6 h-T6 h 30): 79.25 % of respective basal
5-HT in dialysate, individual animals (T6 h-T6 h 30): 70.23 % of respective basal and 12.51 % of respective basal and 74.22 % of respective basal and 42.28 % of respective basal and 81.01 % of respective basal and 173.04 % of respective basal and 63.01 % of respective basal and 117.68 % of respective basal
5-HT in dialysate, MEAN (T-30 min-T0 (pre-dose)): 87.59 % of respective basal
5-HT in dialysate, MEAN (T-1 h 30-T-1 h (pre-dose)): 108.45 % of respective basal
5-HT in dialysate, MEAN (T-1 h-T-30 min (pre-dose)): 105.84 % of respective basal
5-HT concentrations in prefrontal cortex, significant increase (citalopram 10 mg/kg IP, from 1 h to 2 h): 219%
5-HT release, maximum increase observed (citalopram 10 mg/kg, at 1 h): 218%
